{"source": "patent US20180169242A1", "about": "“PHARMACEUTICAL COMBINATION FOR CANCER TREATMENT AND THE THERAPEUTIC USE THEREOF” (Shiner Pharm Corp., priority 2016, published 2018)", "tested_on": "Lewis lung carcinoma cells", "test": "Local tumor growth (tumor volume) in Lewis lung carcinoma animal model", "type": "in vivo, C57BL/6 mice", "settings": "metformin 200 mg/kg/day, fluvastatin 80 mg/kg/day", "description": "Lewis lung carcinoma (LLC) model was established.\nThe cancer inhibiting effect of metformin and statin was examined. After the mice were sacrificed, tumor volume on the right thigh of the mice was measured to deteiiiiine local tumor growth.", "data": [{"smiles": "CN(C)C(=N)N=C(N)N", "note": "[metformin]", "values": [{"measurement": "therapeutic effect on tumor volume compared with the sham group", "setting": "no irradiation, day 7 to day 11, tumor volume on right thigh at day 21", "result": "did not exhibit any therapeutic effect"}, {"measurement": "local tumor growth / tumor volume when combined with radiotherapy", "setting": "with 40 Gy irradiation in two 20 Gy fractions (day 8, day 10), compared with RT alone, RT+M and RT+S, day 21", "result": "neither combining radiotherapy with metformin alone or with statin alone could suppress local tumor growth"}]}]}
